# Values quoted from earlier work, collected in paper PMC2821159 (Bioorganic & medicinal chemistry, 2009).
# Tested on: protein kinases
smiles,measurement,value
"CNc1ncnc2c1c(-c1cccc(O)c1)cn2C(C)C [Compound 4, 3-(7-isopropyl-4-(methylamino)-7H-pyrrolo[2,3-d]pyrimidin-5yl)phenol]",inhibition against protein kinases,poor inhibition
